Molecular target: T1, mGluR5 receptor (Sus scrofa, UniProt I3LUI7)
T1 construct: 450 μg of protein from brain homogenate are incubated with 5 nM^3[H]-MPEP; from tissue; host or cells: pig brain hemispheres without medulla, cerebellum and pons
Test: Affinity for the mGluR5 receptor: displacement of 3[H]-MPEP binding in pig brain homogenate
Conditions: 10 μM compound, 5 nM 3[H]-MPEP
Description: II. Method for Determining the Affinity for the mGluR5 Receptor
In each case 450 μg of protein from brain homogenate are incubated with 5 nM^3[H]-MPEP (Tocris, order No. R1212) (MPEP=2-methyl-6-[…]) and the compounds to be investigated (10 μM in the assay) in buffer (as above) in 250 μl incubation mixtures in 96-well microtiter plates at room temperature for 60 min.
The filter plates were then dried at 55° C. for 60 min.

T1 sequence (I3LUI7 19-1212): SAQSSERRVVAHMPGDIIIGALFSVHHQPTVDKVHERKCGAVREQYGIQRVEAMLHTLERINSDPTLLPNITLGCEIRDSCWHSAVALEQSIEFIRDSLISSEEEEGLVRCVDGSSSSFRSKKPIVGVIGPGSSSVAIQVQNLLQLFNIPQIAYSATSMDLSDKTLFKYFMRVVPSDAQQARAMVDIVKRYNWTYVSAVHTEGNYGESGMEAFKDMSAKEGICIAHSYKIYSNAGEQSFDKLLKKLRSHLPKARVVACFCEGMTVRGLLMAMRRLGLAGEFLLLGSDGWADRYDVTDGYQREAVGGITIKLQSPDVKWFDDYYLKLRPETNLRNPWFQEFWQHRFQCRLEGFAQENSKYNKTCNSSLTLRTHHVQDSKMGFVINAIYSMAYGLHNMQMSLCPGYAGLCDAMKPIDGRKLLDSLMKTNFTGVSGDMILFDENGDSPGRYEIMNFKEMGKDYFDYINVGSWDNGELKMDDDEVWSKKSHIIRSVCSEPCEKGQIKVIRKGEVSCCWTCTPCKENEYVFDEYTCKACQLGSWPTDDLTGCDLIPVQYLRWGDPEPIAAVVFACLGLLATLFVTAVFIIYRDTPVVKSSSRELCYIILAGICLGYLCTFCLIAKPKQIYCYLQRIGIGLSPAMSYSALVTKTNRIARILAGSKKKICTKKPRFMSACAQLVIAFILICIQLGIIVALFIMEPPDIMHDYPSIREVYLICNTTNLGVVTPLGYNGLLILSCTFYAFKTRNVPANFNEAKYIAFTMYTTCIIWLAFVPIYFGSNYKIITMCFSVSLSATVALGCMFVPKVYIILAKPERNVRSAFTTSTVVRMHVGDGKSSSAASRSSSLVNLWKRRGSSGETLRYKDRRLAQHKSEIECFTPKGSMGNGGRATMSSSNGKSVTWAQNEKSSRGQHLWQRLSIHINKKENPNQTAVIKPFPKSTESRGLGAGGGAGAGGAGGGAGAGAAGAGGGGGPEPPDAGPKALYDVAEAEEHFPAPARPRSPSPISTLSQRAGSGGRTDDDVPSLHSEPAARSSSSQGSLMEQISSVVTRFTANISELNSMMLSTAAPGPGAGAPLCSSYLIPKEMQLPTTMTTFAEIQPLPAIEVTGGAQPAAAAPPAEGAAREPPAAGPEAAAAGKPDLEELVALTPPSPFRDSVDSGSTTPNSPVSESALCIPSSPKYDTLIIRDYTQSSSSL

SMILES | inhibition at 10 µM [%] | mGluR5 receptor inhibition of the 3[H]-MPEP binding in % (10 μM) [%]
Cc1ccc(C(=O)Nc2noc3ccc(Br)cc23)cc1 [Example 138, N-(5-bromobenzo[d]isoxazol-3-yl)-4-methylbenzamide] | 32 | 
O=C(Nc1noc2ccc(Br)cc12)c1ccccc1Br [Example 140, 2-bromo-N-(5-bromobenzo[d]isoxazol-3-yl)benzamide] | 38.4 | 
Cc1cccc(C(=O)Nc2noc3ccc(C)cc23)c1 [Example 143, 3-methyl-N-(5-methylbenzo[d]isoxazol-3-yl)benzamide] |  | 44.66
CCC(C(=O)Nc1noc2ccc(C)cc12)c1ccccc1 (stereo not drawn) [Example 145, N-(5-methylbenzo[d]isoxazol-3-yl)-2-phenylbutyramide] | 43.5 | 
O=C(Nc1noc2cccc(F)c12)c1ccccc1F [Example 149, 2-fluoro-N-(4-fluorobenzo[d]isoxazol-3-yl)benzamide] | 32.5 | 
O=C(Nc1noc2cccc(F)c12)C12CC3CC(CC(C3)C1)C2 [Example 150, adamantane-1-(4-fluorobenzo[d]isoxazol-3-yl)carboxamide] |  | 53.18
O=C(Nc1noc2cccc(Cl)c12)C12CC3CC(CC(C3)C1)C2 [Example 151, adamantane-1-(4-chlorobenzo[d]isoxazol-3-yl)carboxamide] |  | 74.05
O=C(Nc1noc2cccc(Cl)c12)c1ccccc1 [Example 152, N-(4-chlorobenzo[d]isoxazol-3-yl)benzamide] | 31.6 | 
Cc1cccc(C(=O)Nc2noc3cccc(Cl)c23)c1 [Example 153, N-(4-chlorobenzo[d]isoxazol-3-yl)-3-methylbenzamide] | 63.8 | 
CC(C)(C)CC(=O)Nc1noc2cccc(Cl)c12 [Example 155, N-(4-chlorobenzo[d]isoxazol-3-yl)-3,3-dimethylbutyramide] | 52.4 | 
COc1cccc2onc(NC(=O)c3ccccc3C(F)(F)F)c12 [Example 158, N-(4-methoxybenzo[d]isoxazol-3-yl)-2-trifluoromethylbenzamide] | 36.1 | 
CCCCC(CC)C(=O)Nc1noc2cccc(OC)c12 (stereo not drawn) [Example 159, N-(4-methoxybenzo[d]isoxazol-3-yl)-2-ethylhexanamide] | 43.2 | 
CCC(C)C(=O)Nc1noc2cccc(OC)c12 (stereo not drawn) [Example 160, N-(4-methoxybenzo[d]isoxazol-3-yl)-2-methylbutyramide] | 54 | 
Cc1cc(C(=O)Nc2noc3cccc(OCC(F)(F)F)c23)c(C)o1 [Example 166, 2,5-dimethylfuran-3-[4-(2,2,2-trifluoroethoxy)benzo[d]isoxazol-3-yl]carboxamide] |  | 32.39
Cc1ccc(COc2cccc3onc(NC(=O)c4cccc([N+](=O)[O-])c4)c23)cc1 [Example 167, N-[4-(4-methylbenzyloxy)benzo[d]isoxazol-3-yl]-3-nitrobenzamide] | 39.7 | 
CN(C)c1cccc2onc(NC(=O)c3cc(F)cc(C(F)(F)F)c3)c12 [Example 169, N-(4-dimethylaminobenzo[d]isoxazol-3-yl)-3-fluoro-5-trifluoromethylbenzamide] | 36.8 | 
CN(C)c1cccc2onc(NC(=O)c3ccc(Cl)c(Cl)c3)c12 [Example 170, 3,4-dichloro-N-(4-dimethylaminobenzo[d]isoxazol-3-yl)benzamide] | 38 | 
CN(C)c1cccc2onc(NC(=O)C34CC5CC(CC(C5)C3)C4)c12 [Example 172, adamantane-1-(4-dimethylaminobenzo[d]isoxazol-3-yl)carboxamide] |  | 51.40
CN(C)c1cccc2onc(NC(=O)c3cc4ccccc4s3)c12 [Example 173, benzo[b]thiophene-2-(4-dimethylaminobenzo[d]isoxazol-3-yl)carboxamide] |  | 43.55
Nc1c(F)c(F)c2c(NC(=O)c3c(F)cccc3F)noc2c1F [Example 176, N-(6-amino-4,5,7-trifluorobenzo[d]isoxazol-3-yl)-2,6-difluorobenzamide] | 36.1 | 
Nc1c(F)c(F)c2c(NC(=O)c3ccc(F)cc3F)noc2c1F [Example 177, N-(6-amino-4,5,7-trifluorobenzo[d]isoxazol-3-yl)-2,4-difluorobenzamide] | 30.8 | 

Second part, the molecule after the results:

inhibition at 10 µM [%] | mGluR5 receptor inhibition of the 3[H]-MPEP binding in % (10 μM) [%] | SMILES
41.5 |  | COc1cccc(OC)c1C(=O)Nc1noc2ccc(Br)cc12 [Example 139, N-(5-bromobenzo[d]isoxazol-3-yl)-2,6-dimethoxybenzamide]
33.1 |  | O=C(Nc1noc2ccc(Br)cc12)c1cc(F)ccc1C(F)(F)F [Example 141, N-(5-bromobenzo[d]isoxazol-3-yl)-5-fluoro-2-trifluoromethylbenzamide]
37.8 |  | COc1cccc(C(=O)Nc2noc3ccc(Br)cc23)c1 [Example 142, N-(5-bromobenzo[d]isoxazol-3-yl)-3-methoxybenzamide]
48.8 |  | Cc1ccc2onc(NC(=O)c3ccc(C#N)cc3)c2c1 [Example 144, 4-cyano-N-(5-methylbenzo[d]isoxazol-3-yl)benzamide]
34 |  | CCCC(C)C(=O)Nc1noc2ccc(C)cc12 (stereo not drawn) [Example 146, N-(5-methylbenzo[d]isoxazol-3-yl)-2-methylpentanamide]
31.4 |  | O=C(Nc1noc2cccc(F)c12)c1ccccc1 [Example 147, N-(4-fluorobenzo[d]isoxazol-3-yl)benzamide]
79.5 |  | O=C(Nc1noc2cccc(F)c12)c1ccc(Cl)cc1 [Example 148, 4-chloro-N-(4-fluorobenzo[d]isoxazol-3-yl)benzamide]
30 |  | CCC(C)C(=O)Nc1noc2cccc(Cl)c12 (stereo not drawn) [Example 154, N-(4-chlorobenzo[d]isoxazol-3-yl)-2-methylbutyramide]
33.8 |  | COc1cccc2onc(NC(=O)c3ccccc3C)c12 [Example 156, N-(4-methoxybenzo[d]isoxazol-3-yl)-2-methylbenzamide]
32.4 |  | COc1cccc2onc(NC(=O)c3ccccc3Cl)c12 [Example 157, 2-chloro-N-(4-methoxybenzo[d]isoxazol-3-yl)benzamide]
38.5 |  | CCCC(C)C(=O)Nc1noc2cccc(OC)c12 (stereo not drawn) [Example 161, N-(4-methoxybenzo[d]isoxazol-3-yl)-2-methylpentanamide]
36 |  | CCC(C)C(=O)Nc1noc2cccc(OCC(F)(F)F)c12 (stereo not drawn) [Example 163, 2-methyl-N-[4-(2,2,2-trifluoroethoxy)benzo[d]isoxazol-3-yl]butyramide]
33.4 |  | CC(C)(C)CC(=O)Nc1noc2cccc(OCC(F)(F)F)c12 [Example 164, 3,3-dimethyl-N-[4-(2,2,2-trifluoroethoxy)benzo[d]isoxazol-3-yl]butyramide]
32.2 |  | CCCc1ccc(C(=O)Nc2noc3cccc(OCc4ccc(C)cc4)c23)cc1 [Example 168, N-[4-(4-methylbenzyloxy)benzo[d]isoxazol-3-yl]-4-propylbenzamide]
42.3 |  | CN(C)c1cccc2onc(NC(=O)c3cccc([N+](=O)[O-])c3)c12 [Example 171, N-(4-dimethylaminobenzo[d]isoxazol-3-yl)-3-nitrobenzamide]
